Test results from patent US11666554B2, “Use of a carbamate compound to prevent, alleviate or treat visceralgia or pain arising from visceral disease” (SK BIOPHARMACEUTICALS CO., LTD., priority 2017, dated 2023).
Marks after values point to notes of the source that are not given here.

Tested on: Male ICR mice
Assay: Acetic acid-induced writhing test
Assay type: in vivo
Settings: for Number of writhing: mean ± standard error
Procedure: As a representative animal experimental model widely used to confirm the analgesic effect on visceral pain, an acetic acid-induced writhing test is used [T. J. Ness, Models of Visceral Nociception (1999) ILAR Journal 40: 119-128]. At this time, acetic acid is a chemical that is a stimulus used to induce pain, and when it is injected into the abdominal cavity of the mouse, characteristic writhing pain behaviors are induced in which due to the inflammatory pain caused in the peritoneum the mouse stretches both the forelimbs and the hind legs, and touches the abdomen to the floor or twists. However, when a drug having an analgesic effect, such as morphine, is injected into a mouse, the writhing pain behaviors of the mouse is reduced. As such, the degree of decreasing the writhing pain behaviors is measured to confirm the analgesic effect of the drug.
Male ICR mice (body weight: 24 to 30 g) were used in this experiment. The experimental animals were maintained at a light-and-darkness cycle of 12 hours, a temperature of 22 to 25° C., a relative humidity of 40 to 60%, and free access to water and food. For stabilization of animal behavior, the experimental animals were allowed to acclimate to the laboratory conditions for at least 1 hour before the test.
As a vehicle serving as the negative control, 30% PEG400 (v/v) was used, and Test Compound was dissolved in the vehicle and administered orally at doses of 3, 10 and 30 mg/kg. Morphine which is the positive control was dissolved in saline and administered subcutaneously at a dose of 10 mg/kg. The final dose of solution was 10 ml/kg.
After 1 hour of oral administration of the vehicle and Test Compound or 30 minutes after subcutaneous administration of morphine, the mice were gently restrained, and 0.8% (v/v) acetic acid solution was administered intraperitoneally to the abdomen of the mice. The mice were immediately returned to the observation box, and the number of writhing pain behaviors of the mice for 10 minutes was recorded.
The effect of the compound was expressed as the mean±standard error, and statistical significance was recognized when data differed by p<0.05 using one-way ANOVA and Dunnett's test.

| Compound | Suppression rate compared to negative control (10 mg/kg s.c.) [%] | Number of writhing (10 mg/kg s.c., 30 minutes before i.p. 0.8% acetic acid) | Suppression rate compared to negative control (10 mg/kg s.c., listed as morphine) [%] | Suppression rate compared to negative control (3 mg/kg p.o.) [%] | Number of writhing (3 mg/kg p.o., 1 hour before i.p. 0.8% acetic acid) [writes/10 minutes] | Suppression rate compared to negative control (10 mg/kg p.o.) [%] | Number of writhing (10 mg/kg p.o., 1 hour before i.p. 0.8% acetic acid) | Suppression rate compared to negative control (30 mg/kg p.o.) [%] | Number of writhing (30 mg/kg p.o., 1 hour before i.p. 0.8% acetic acid) |
| --- | --- | --- | --- | --- | --- | --- | --- | --- | --- |
| CN1CC[C@]23c4c5ccc(O)c4O[C@H]2[C@@H](O)C=C[C@H]3[C@H]1C5 [Morphine, reference compound] | 98.2 | 0.4 ± 0.3^1) writes/10 minutes | 98.2 |  |  |  |  |  |  |
| NC(=O)O[C@@H](Cn1ncnn1)c1ccccc1Cl [Test Compound, Carbamic acid (R)-1-(2-chlorophenyl)-2-tetrazol-2-yl-ethyl ester] |  |  |  | 25.8 | 17.3 ± 2.6 | 66.1 | 7.9 ± 2.4^1) writes/10 minutes | 100 | 0.0 ± 0.0^1) writes/10 minutes |
